# In the supplement of paper PMC10307832:
# Experiments:
# Assay in all cases: relative viability (nuclei count vs DMSO), 5 days (fraction); higher = more cells survive
# [1] = tested on: NCI-H2009
# In short: (§1)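 Relative viability divides the nuclei count in treated wells by that in vehicle wells. Lung cancer cell lines were seeded in 1536-well plates, dosed by pin tool the next day, and fixed and stained after 5 days in one step with final 0.05% Triton X-100, 1% formaldehyde and 1 ug/ml Hoechst. Dosing was a single drug or a fixed anchor-drug dose plus five library-drug doses (not always all listed) in √10 steps, and values are medians of duplicate plates imaged at 4×.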
# [2] = tested on: NCI-H838
# In short: as §1
# [3] = tested on: HCC-78
# In short: as §1
# [4] = tested on: PC-3 [JPC-3]
# In short: as §1
# [5] = tested on: NCI-H2405
# In short: as §1
# [6] = tested on: HCC-366
# In short: as §1
# [7] = tested on: SW 1573
# In short: as §1
# [8] = tested on: NCI-H1355
# In short: as §1
# [9] = tested on: NCI-H520
# In short: as §1
# [10] = tested on: NCI-H2126
# In short: as §1
# [11] = tested on: UMC-11
# In short: as §1
# [12] = tested on: NCI-H1437
# In short: as §1
# [13] = tested on: LU99A
# In short: as §1
# [14] = tested on: HARA
# In short: as §1
# [15] = tested on: NCI-H2347
# In short: as §1
# [16] = tested on: NCI-H441
# In short: as §1
# [17] = tested on: NCI-H1734
# In short: as §1
# [18] = tested on: HCC-44
# In short: as §1
# [19] = tested on: NCI-H358
# In short: as §1
# [20] = tested on: BEN
# In short: as §1
# [21] = tested on: NCI-H727
# In short: as §1
# [22] = tested on: 201T
# In short: as §1
smiles,measurement,setting,value
COCC1(CO)C(=O)C2CCN1CC2 (stereo not drawn) [PRIMA-1MET] + C[C@]1(O)C[C@@H](c2nc(-c3ccc4ccc(-c5ccccc5)nc4c3)c3c(N)nccn32)C1 [Linsitinib] (partner 1 µM),relative viability,[1]; first compound 0.2 µM,1.17
same,relative viability,[1]; first compound 0.6325 µM,1.09
same,relative viability,[1]; first compound 2 µM,1.22
same,relative viability,[1]; first compound 6.325 µM,1.16
same,relative viability,[1]; first compound 20 µM,0.693
same,relative viability,[2]; first compound 0.2 µM,1.21
same,relative viability,[2]; first compound 0.6325 µM,1.02
same,relative viability,[2]; first compound 2 µM,1.04
same,relative viability,[2]; first compound 6.325 µM,1.14
same,relative viability,[2]; first compound 20 µM,1.06
same,relative viability,[3]; first compound 0.2 µM,0.658
same,relative viability,[3]; first compound 0.6325 µM,0.556
same,relative viability,[3]; first compound 6.325 µM,0.498
same,relative viability,[3]; first compound 20 µM,0.0559
same,relative viability,[4]; first compound 0.2 µM,1
same,relative viability,[4]; first compound 0.6325 µM,0.92
same,relative viability,[4]; first compound 2 µM,0.979
same,relative viability,[4]; first compound 6.325 µM,1.02
same,relative viability,[4]; first compound 20 µM,0.91
same,relative viability,[5]; first compound 0.2 µM,0.635
same,relative viability,[5]; first compound 0.6325 µM,1.01
same,relative viability,[5]; first compound 6.325 µM,0.727
same,relative viability,[5]; first compound 20 µM,0.0877
same,relative viability,[6]; first compound 0.2 µM,0.773
same,relative viability,[6]; first compound 0.6325 µM,0.566
same,relative viability,[6]; first compound 6.325 µM,0.636
same,relative viability,[6]; first compound 20 µM,0.0588
same,relative viability,[7]; first compound 0.2 µM,0.779
same,relative viability,[7]; first compound 0.6325 µM,0.796
same,relative viability,[7]; first compound 2 µM,0.875
same,relative viability,[7]; first compound 6.325 µM,0.456
same,relative viability,[7]; first compound 20 µM,0.0414
same,relative viability,[8]; first compound 0.2 µM,0.998
same,relative viability,[8]; first compound 0.6325 µM,0.796
same,relative viability,[8]; first compound 2 µM,0.68
same,relative viability,[8]; first compound 6.325 µM,0.81
same,relative viability,[8]; first compound 20 µM,0.76
same,relative viability,[9]; first compound 0.2 µM,1.05
same,relative viability,[9]; first compound 0.6325 µM,1
same,relative viability,[9]; first compound 6.325 µM,0.869
same,relative viability,[9]; first compound 20 µM,0.0887
same,relative viability,[10]; first compound 0.2 µM,0.726
same,relative viability,[10]; first compound 0.6325 µM,0.692
same,relative viability,[10]; first compound 2 µM,0.636
same,relative viability,[10]; first compound 6.325 µM,0.732
same,relative viability,[10]; first compound 20 µM,0.67
same,relative viability,[11]; first compound 0.2 µM,1.11
same,relative viability,[11]; first compound 0.6325 µM,0.887
same,relative viability,[11]; first compound 2 µM,1.04
same,relative viability,[11]; first compound 6.325 µM,0.97
same,relative viability,[11]; first compound 20 µM,0.94
same,relative viability,[12]; first compound 0.2 µM,1.08
same,relative viability,[12]; first compound 0.6325 µM,0.982
same,relative viability,[12]; first compound 2 µM,1.02
same,relative viability,[12]; first compound 6.325 µM,1.1
same,relative viability,[12]; first compound 20 µM,0.753
same,relative viability,[13]; first compound 0.2 µM,0.629
same,relative viability,[13]; first compound 0.6325 µM,0.439
same,relative viability,[13]; first compound 2 µM,0.567
same,relative viability,[13]; first compound 6.325 µM,0.526
same,relative viability,[13]; first compound 20 µM,0.189
same,relative viability,[14]; first compound 0.2 µM,1.16
same,relative viability,[14]; first compound 0.6325 µM,0.265
same,relative viability,[14]; first compound 6.325 µM,0.903
same,relative viability,[14]; first compound 20 µM,0.874
same,relative viability,[15]; first compound 0.2 µM,1.02
same,relative viability,[15]; first compound 0.6325 µM,0.847
same,relative viability,[15]; first compound 2 µM,0.697
same,relative viability,[15]; first compound 6.325 µM,0.995
same,relative viability,[15]; first compound 20 µM,0.934
same,relative viability,[16]; first compound 0.2 µM,0.556
same,relative viability,[16]; first compound 0.6325 µM,0.517
same,relative viability,[16]; first compound 2 µM,0.458
same,relative viability,[16]; first compound 6.325 µM,0.524
same,relative viability,[16]; first compound 20 µM,0.24
same,relative viability,[17]; first compound 0.2 µM,0.972
same,relative viability,[17]; first compound 0.6325 µM,0.808
same,relative viability,[17]; first compound 2 µM,0.824
same,relative viability,[17]; first compound 6.325 µM,0.818
same,relative viability,[17]; first compound 20 µM,0.51
same,relative viability,[18]; first compound 0.2 µM,0.746
same,relative viability,[18]; first compound 0.6325 µM,0.528
same,relative viability,[18]; first compound 2 µM,0.673
same,relative viability,[18]; first compound 6.325 µM,0.706
same,relative viability,[18]; first compound 20 µM,0.625
same,relative viability,[19]; first compound 0.2 µM,0.97
same,relative viability,[19]; first compound 0.6325 µM,0.399
same,relative viability,[19]; first compound 6.325 µM,0.757
same,relative viability,[19]; first compound 20 µM,0.0326
same,relative viability,[20]; first compound 0.2 µM,1.04
same,relative viability,[20]; first compound 0.6325 µM,0.765
same,relative viability,[20]; first compound 6.325 µM,1.08
same,relative viability,[20]; first compound 20 µM,0.85
same,relative viability,[21]; first compound 0.2 µM,0.386
same,relative viability,[21]; first compound 0.6325 µM,0.247
same,relative viability,[21]; first compound 2 µM,0.301
same,relative viability,[21]; first compound 6.325 µM,0.356
same,relative viability,[21]; first compound 20 µM,0.169
same,relative viability,[22]; first compound 0.2 µM,1.11
same,relative viability,[22]; first compound 0.6325 µM,1.05
same,relative viability,[22]; first compound 2 µM,0.934
same,relative viability,[22]; first compound 6.325 µM,1.11
same,relative viability,[22]; first compound 20 µM,1
